Results on 27 molecules are retold here after patent US9056876B2, “Substituted 1H-pyrazolo[3′,4′,4,5]thieno[2,3-b]pyridin-3-amine analogs as positive allosteric modulators of the muscarinic acetylcholine receptor M4” (VANDERBILT UNIVERSITY, priority 2011, dated 2015).

The target in this assay is T1, mAChR M4 (UniProt P08173).
T1 construct: hM1 and hM4 cDNAs were purchased from Missouri S&T cDNA Resource
T1 sequence (P08173 1-479): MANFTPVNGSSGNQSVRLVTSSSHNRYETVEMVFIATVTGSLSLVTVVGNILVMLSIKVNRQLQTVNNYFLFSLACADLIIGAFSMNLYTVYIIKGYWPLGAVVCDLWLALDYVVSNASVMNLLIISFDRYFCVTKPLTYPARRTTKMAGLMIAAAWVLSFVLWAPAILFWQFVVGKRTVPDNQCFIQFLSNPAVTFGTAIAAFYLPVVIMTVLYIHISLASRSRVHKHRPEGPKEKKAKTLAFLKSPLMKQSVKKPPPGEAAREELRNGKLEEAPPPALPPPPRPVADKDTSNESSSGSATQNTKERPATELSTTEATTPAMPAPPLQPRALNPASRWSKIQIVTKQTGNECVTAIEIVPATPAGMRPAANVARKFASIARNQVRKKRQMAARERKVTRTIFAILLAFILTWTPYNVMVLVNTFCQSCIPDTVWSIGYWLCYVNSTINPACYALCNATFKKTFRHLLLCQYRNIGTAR
The assay can be described thus: mAChR M4 cell-based functional assay (calcium mobilization, Fluo-4, FDSS). As to conditions: for pEC50: positive allosteric modulator activity, EC20 acetylcholine response; for pEC50 / EC50: CHO-K1 cells; for EC50: positive allosteric modulator activity: concentration-dependent increase in the EC20 acetylcholine response, >10 μM estimated for low potency (no plateau); for Emax (%)*: % ACh maximum at 30 μM. An outline of the steps: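 CHO-K1 cells stably expressing hM4 or rM4 with chimeric Gqi5, loaded with Fluo-4 AM for 50 min at 37° C. Calcium read on FDSS 6000 over 300 s: compound added at 4 s, acetylcholine EC20 at 144 s and EC80 at 230 s. Agonist, PAM (EC20 increase) and antagonist (EC80 decrease) values fitted by four-parameter logistic.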

Regarding `Cc1cc(C)c2c(n1)sc1c(NC3CCC(NC(=O)OC(C)(C)C)CC3)n[nH]c12` (centres unmarked) [Compound 139, tert-butyl (4-((6,8-dimethyl-1H-pyrazolo[3′,4′:4,5]thieno[2,3-b]pyridin-3-yl)amino)cyclohexyl)carbamate], the pEC50 is given as below 5.00 and the EC50 is above 10000 nM.

Take `Cc1cc(C)c2c(n1)sc1c(NC3CCOCC3)nn(C)c12` [Compound 65, 1,6,8-trimethyl-N-(tetrahydro-2H-pyran-4-yl)-1H-pyrazolo[3′,4′:4,5]thieno[2,3-b]pyridin-3-amine]: the “Emax (%)*” value turned out to be 78%, the pEC50 is recorded as 6.00 and the EC50 was 1000 nM.

Consider `Cc1cc(C)c2c(n1)sc1c(NCc3ccc(C)o3)nn(C)c12` [Compound 78, 1,6,8-trimethyl-N-((5-methylfuran-2-yl)methyl)-1H-pyrazolo[3′,4′:4,5]thieno[2,3-b]pyridin-3-amine], for which the “Emax (%)*” value is reported as 84%, the negative-log EC50 (pEC50) worked out at 7.05 and the EC50 is 90 nM.

Regarding `Cc1ccnc2sc3c(NCc4ccncc4)nn(C)c3c12` [Compound 62, 1,8-dimethyl-N-(pyridin-4-ylmethyl)-1H-pyrazolo[3′,4′:4,5]thieno[2,3-b]pyridin-3-amine], the “Emax (%)*” value is on record as 74%, the pEC50 is given as 6.19 and the EC50 was 640 nM.

For the molecule `COCCn1nc(NCc2ccco2)c2sc3nc(C)cc(C)c3c21` [Compound 167, N-(furan-2-ylmethyl)-1-(2-methoxyethyl)-6,8-dimethyl-1H-pyrazolo[3′,4′:4,5]thieno[2,3-b]pyridin-3-amine], the pEC50 is on record as below 5.00 and the EC50 was above 10000 nM.

On to `Cc1nc2sc3c(NCCC(C)C)n[nH]c3c2c(C)c1Cl` [Compound 140, 7-chloro-N-isopentyl-6,8-dimethyl-1H-pyrazolo[3′,4′:4,5]thieno[2,3-b]pyridin-3-amine], for which the pEC50 is reported as below 5.00 and the EC50 is above 10000 nM.

Regarding `Cc1ccc2c(n1)sc1c(NCCC(C)C)nn(C)c12` [Compound 54, N-isopentyl-1,6-dimethyl-1H-pyrazolo[3′,4′:4,5]thieno[2,3-b]pyridin-3-amine], the “Emax (%)*” value amounted to 71%, the pEC50 is given as 6.06 and the EC50 was 880 nM.

As for `Cc1cc(C)c2c(n1)sc1c(NCc3cc(C#N)ccc3F)nn(C)c12` [Compound 91, 4-fluoro-3-(((1,6,8-trimethyl-1H-pyrazolo[3′,4′:4,5]thieno[2,3-b]pyridin-3-yl)amino)methyl)benzonitrile], the “Emax (%)*” value worked out at 57%, the pEC50 is given as 6.66 and the EC50 is 220 nM.

For the molecule `Cc1cc(C)c2c(n1)sc1c(NCc3ccncc3)nn(C)c12` [Compound 42, 1,6,8-trimethyl-N-(pyridin-4-ylmethyl)-1H-pyrazolo[3′,4′:4,5]thieno[2,3-b]pyridin-3-amine], the “Emax (%)*” value is listed as 93%, the pEC50 came to 6.82 and the EC50 is 150 nM.

Consider `Cc1cc(C)c2c(n1)sc1c(NCC3CC3)nn(C)c12` [Compound 30, N-(cyclopropylmethyl)-1,6,8-trimethyl-1H-pyrazolo[3′,4′:4,5]thieno[2,3-b]pyridin-3-amine], for which the “Emax (%)*” value amounted to 73%, the pEC50 worked out at 6.80 and the EC50 is 160 nM.

Regarding `Cc1ccc2c(n1)sc1c(NCc3ccc(Cl)cc3)nn(C)c12` [Compound 56, N-(4-chlorobenzyl)-1,6-dimethyl-1H-pyrazolo[3′,4′:4,5]thieno[2,3-b]pyridin-3-amine], the “Emax (%)*” value came to 56%, the pEC50 is listed as below 5.00 and the EC50 is above 10000 nM.

Turning to `Cc1cc(C)c2c(n1)sc1c(NCC3CCN(C(=O)OC(C)(C)C)CC3)nn(C)c12` [Compound 122, tert-butyl 4-(((1,6,8-trimethyl-1H-pyrazolo[3′,4′:4,5]thieno[2,3-b]pyridin-3-yl)amino)methyl)piperidine-1-carboxylate], the “Emax (%)*” value came out at 27%, the pEC50 is below 5.00 and the EC50 was above 10000 nM.

Turning to `CCC(=O)Nc1nn(C)c2c1sc1nc(C)cc(C)c12` [Compound 47, N-(1,6,8-trimethyl-1H-pyrazolo[3′,4′:4,5]thieno[2,3-b]pyridin-3-yl)propionamide], the “Emax (%)*” value worked out at 43%, the pEC50 is listed as 5.54 and the EC50 was 2900 nM.

For the molecule `Cc1nc2sc3c(Nc4ccncc4)nn(C)c3c2c(C)c1Cl` [Compound 148, 7-chloro-1,6,8-trimethyl-N-(pyridin-4-yl)-1H-pyrazolo[3′,4′:4,5]thieno[2,3-b]pyridin-3-amine], the pEC50 is given as below 5.00 and the EC50 was above 10000 nM.

`Cc1ccc2c(n1)sc1c(NC(C)C)nn(C)c12` [Compound 70, N-isopropyl-1,6-dimethyl-1H-pyrazolo[3′,4′:4,5]thieno[2,3-b]pyridin-3-amine]: the “Emax (%)*” value worked out at 62%, the pEC50 is given as below 5.00 and the EC50 is above 10000 nM.

Regarding `Cc1cc(C)c2c(n1)sc1c(N)n[nH]c12` [Compound 1, 6,8-dimethyl-1H-pyrazolo[3′,4′:4,5]thieno[2,3-b]pyridin-3-amine], the “Emax (%)*” value is given as 27%, the pEC50 is listed as below 5.00 and the EC50 was above 10000 nM.

As to `Cc1cc(C)c2c(n1)sc1c(NCc3ccccc3)n[nH]c12` [Compound 5, N-benzyl-6,8-dimethyl-1H-pyrazolo[3′,4′:4,5]thieno[2,3-b]pyridin-3-amine], the “Emax (%)*” value came to 58%, the pEC50 is recorded as 5.97 and the EC50 is 1070 nM.

Turning to `Cc1cc(C)c2c(n1)sc1c(NC3CCCN(C(=O)OC(C)(C)C)C3)n[nH]c12` (centres unmarked) [Compound 135, tert-butyl 3-((6,8-dimethyl-1H-pyrazolo[3′,4′:4,5]thieno[2,3-b]pyridin-3-yl)amino)piperidine-1-carboxylate], the pEC50 is below 5.00 and the EC50 was above 10000 nM.

In the case of `Cc1cc(C)c2c(n1)sc1c(NC(C)C)nn(CCO)c12` [Compound 112, 2-(3-(isopropylamino)-6,8-dimethyl-1H-pyrazolo[3′,4′:4,5]thieno[2,3-b]pyridin-1-yl)ethanol], the “Emax (%)*” value was found to be 71%, the pEC50 worked out at 5.68 and the EC50 is 2100 nM.

Regarding `Cc1nc2sc3c(NCc4ccccc4F)n[nH]c3c2c(C)c1Cl` [Compound 147, 7-chloro-N-(2-fluorobenzyl)-6,8-dimethyl-1H-pyrazolo[3′,4′:4,5]thieno[2,3-b]pyridin-3-amine], the pEC50 is recorded as below 5.00 and the EC50 is above 10000 nM.

`Cc1cc(C)c2c(n1)sc1c(NC3CCN(C)C3)nn(C)c12` (centres unmarked) [Compound 105, ,6,8-trimethyl-N-(1-methylpyrrolidin-3-yl)-1H-pyrazolo[3′,4′:4,5]thieno[2,3-b]pyridin-3-amine]: the “Emax (%)*” value is on record as 35%, the pEC50 was below 5.00 and the EC50 is above 10000 nM.

As for `Cc1cc(C)c2c(n1)sc1c(NCc3cccc4c3OCO4)nn(C)c12` [Compound 84, N-(benzo[d][1,3]dioxol-4-ylmethyl)-1,6,8-trimethyl-1H-pyrazolo[3′,4′:4,5]thieno[2,3-b]pyridin-3-amine], the “Emax (%)*” value stood at 50%, the pEC50 came to 6.72 and the EC50 was 190 nM.

As to `Cc1cc(C)c2c(n1)sc1c(NCc3csc(C)n3)nn(C)c12` [Compound 82, 1,6,8-trimethyl-N-((2-methylthiazol-4-yl)methyl)-1H-pyrazolo[3′,4′:4,5]thieno[2,3-b]pyridin-3-amine], the “Emax (%)*” value is 63%, the pEC50 is on record as 6.41 and the EC50 was 390 nM.

In the case of `Cc1cc(C)c2c(n1)sc1c(NCCC(C)C)n[nH]c12` [Compound 3, N-isopentyl-6,8-dimethyl-1H-pyrazolo[3′,4′:4,5]thieno[2,3-b]pyridin-3-amine], the “Emax (%)*” value was determined as 46%, the pEC50 was 5.91 and the concentration giving a half-maximal response (EC50) was 1240 nM.

On to `Cc1cc(C)c2c(n1)sc1c(NC(=O)c3ccc(F)cc3)nn(C)c12` [Compound 154, 4-fluoro-N-(1,6,8-trimethyl-1H-pyrazolo[3′,4′:4,5]thieno[2,3-b]pyridin-3-yl)benzamide], for which the pEC50 is recorded as below 5.00 and the EC50 is above 10000 nM.

Take `COc1ccc(CNc2n[nH]c3c2sc2nc(C)ccc23)cc1` [Compound 72, N-(4-methoxybenzyl)-6-methyl-1H-pyrazolo[3′,4′:4,5]thieno[2,3-b]pyridin-3-amine]: the “Emax (%)*” value was determined as 59%, the pEC50 is reported as 5.74 and the EC50 was 1800 nM.

`Cc1cc(C)c2c(n1)sc1c(N)nn(CCO)c12` [Compound 96, 2-(3-amino-6,8-dimethyl-1H-pyrazolo[3′,4′:4,5]thieno[2,3-b]pyridin-1-yl)ethanol]: the “Emax (%)*” value was found to be 37%, the pEC50 is given as 5.27 and the EC50 was 5400 nM.
